# Results: PMC10754118, “Lipophilic Nucleoside Triphosphate Prodrugs of Anti‐HIV Active Nucleoside Analogs as Potential Antiviral Compounds” (Advanced Science, 2023)
# Like-named read-outs stand apart in the source and are kept apart here.
# Tests used:
# HIV‐1 [HE] = assay: Anti-HIV activity, HIV-1 in wild-type CEM/0 cells; type: cell-based; conditions: wild-type CEM/0 cells, mean ±SD n = 2–3, read-out: Antiviral activity CEM/0 HIV‐1 [HE] EC50
# CEM/0 = assay: in vitro; conditions: read-out: Toxicity CEM/0 CC50; 50% cytostatic concentration, CEM proliferation
# Procedure: (§1) All TriPPPro‐compounds 10 and 20, as well as their parent nucleosides and the corresponding NTPs, were evaluated for their antiviral activity (expressed as EC50 values) against HIV‐1 (wild‐type CEM/0 cells) and HIV‐2 (wild‐type CEM/0 cells and thymidine kinase‐deficient (CEM/TK^−) cells) with concomitant determination of cytotoxicity in the same cell line (Table 3 ).
# HIV‐2 [ROD] = assay: Anti-HIV activity, HIV-2 in wild-type CEM/0 cells; type: cell-based; conditions: wild-type CEM/0 cells, mean ±SD n = 2–3, read-out: Antiviral activity CEM/0 HIV‐2 [ROD] EC50
# HIV‐2 [ROD)] = assay: Anti-HIV activity, HIV-2 in thymidine kinase-deficient CEM/TK^− cells; type: cell-based
# HIV‐RT = target: T1, HIV‐RT (Human immunodeficiency virus type 1 group M subtype B, UniProt P03366); set-up: method as in PMID 37647547; conditions: cited from earlier work
# T1 construct: HIV reverse transcriptase (HIV‐RT); purchased Roboklon
# in vitro [1] = conditions: human, plasma
# [2] = Chemical hydrolysis in phosphate buffer saline (PBS, pH 7.3); type: physicochemical; conditions: PBS pH 7.3, 37 °C, read-out: PBS pH 7.3 t 1/2 (converted)
# Procedure: (§2) Part 4. Chemical Hydrolysis of TriPPPro-compounds 10 and 20.
# Second prepare 1.9 mM hydrolysis […]
# (§3) Then, aliquots of 50 µL human
# in vitro [3] = conditions: human, CEM/0 cells (wild-type CD4+ T-cells)
# Procedure: as §1
# in vitro [4] = conditions: human
# Procedure: The hydrolysis properties of TriPPPro‐compounds 10 and 20 were evaluated in phosphate buffer saline (PBS, pH 7.3), pig liver esterase (PLE) or CEM/0 cell extracts. In both cases, hydrolysis products were analyzed by means of analytical RP18‐HPLC and the hydrolysis half‐lives (Table 1 , t1/2 ) of TriPPPro‐compounds 10 and 20 were calculated after complete consumption of the starting materials.
# The hydrolysis of TriPPPro‐compounds 10 and 20 was carried out with CEM/0 cell extracts as well. […]
# Part 6. Enzyme-Catalyzed Hydrolysis of TriPPPro-compounds 10 and 20 in CEM Cell […]
# First prepare 3.0 mM hydrolysis solutions of Tri PPPro-compounds 10 and 20 in DMSO and H2O: 21 µL stock solution (50 mM in DMSO) and 154 µL DMSO, and 175 µL Milli-Q water. Three-twelve different samples (20 µL 3.0 mM hydrolysis solutions) were prepared in 2 mL Eppendorf® vials. Then, aliquots of 50 µL human CEM cell extracts were added to these samples and the reaction was started. The samples were incubated at 37 °C in a thermomixer for different time periods. The reaction was stopped by addition of 150 µL MeOH and kept on ice for 5 min. After centrifugation at 14,000 rpm for 12 min, the supernatants were filtered (Chromafil RC-20/15 MS, 0.2 μm) and stored in liquid nitrogen. When testing, aliquots of 60 µL (injection volume) were analyzed by analytical HPLC (HPLC Method). The calculation of t1/2 was obtained using Origin again.
# Part 7. Hydrolysis of TriPPPro-compounds 10 and 20 in human plasma.
# µL 3.0 mM hydrolysis solutions) were prepared in 2 mL Eppendorf® vials.
# pig liver esterase (PLE) = assay: Hydrolysis with pig liver esterase (PLE); type: in vitro ADME; conditions: pig liver esterase (PLE) in PBS, PLE in PBS pH 7.3, 37 °C, read-out: PLE t 1/2 (converted)
# Description: Next, TriPPPro‐compounds 10 and 20 were exposed to PLE in PBS (pH 7.3) and the half‐lives of TriPPPro‐compounds 10 and 20 are listed in Table 1. […] In contrast, the cleavage of the AB (C4) masking group in TriPPPro‐compounds 10by–hy and 10bz–hz was triggered by ester hydrolysis and yielded the corresponding γ‐alkylated nucleoside triphosphate derivatives 20 (Figure 3B,D) and 21 (Figures S17 and S18, Supporting Information), respectively. […] Moreover, a very small amount of NDPs was observed, probably due to a reaction involving a nucleophilic reaction at the γ‐phosphate or γ‐phosphonate moiety (pathways d and f, Scheme 5). […]
# as §2
# Second prepare 1.9 mM hydrolysis
# Part 5. Hydrolysis of TriPPPro-compounds 10 and 20 with PLE .
# Second, 125 µL DMSO and 833 µL
# 62.5 µL of PLE solution in PBS (100
# mixture was stored in the freezer (- 30 °C).
# by analytical HPLC (HPLC Method).
# similar to that for the chemical hydrolysis studies. […]
# as §3
# [5] = thymidine kinase-deficient CEM/TK^− cells, mean ±SD n = 2–3; read-out: Antiviral activity CEM/TK^− HIV‐2 [ROD)] EC50
EC50 (HIV‐1 [HE]) [nM],EC50 (HIV‐2 [ROD]) [nM],EC50 (HIV‐2 [ROD)]; [5]) [nM],Structure (SMILES),CC50 (CEM/0) [nM],other results
840 ± 860,650 ± 130,> 100000,"O=c1[nH]c(=O)n([C@H]2C[C@H](F)[C@@H](COP(=O)(O)OP(=O)(O)OP(=O)(O)O)O2)cc1Cl [FddClUTP, reference compound]",> 100000,–
4730 ± 3050,5640 ± 4450,> 100000,"O=c1[nH]c(=O)n([C@H]2C[C@H](O)[C@@H](COP(=O)(O)OP(=O)(O)OP(=O)(O)O)O2)cc1/C=C/Br [BVDUTP, reference compound]",> 100000,–
150 ± 130,260 ± 320,35400 ± 43900,"O=c1ccn([C@H]2C[C@H](F)[C@@H](COP(=O)(O)OP(=O)(O)OP(=O)(O)O)O2)c(=O)[nH]1 [FddUTP, reference compound]",> 100000,–
1850 ± 2140,1020 ± 130,850 ± 400,"Nc1nc(NC2CC2)c2ncn([C@H]3C=C[C@@H](COP(=O)(O)OP(=O)(O)OP(=O)(O)O)C3)c2n1 [ABCTP, reference compound]",> 100000,–
7.6 ± 9.1,18 ± 9,4920 ± 2430,"Cc1cn([C@H]2C[C@H](F)[C@@H](COP(=O)(O)OP(=O)(O)OP(=O)(O)O)O2)c(=O)[nH]c1=O [FLTTP, reference compound]",> 100000,–
28 ± 15,43 ± 40,25 ± 27,"Nc1nc(=O)n([C@@H]2CS[C@H](COP(=O)(O)OP(=O)(O)OP(=O)(O)O)O2)cc1F [FTCTP, reference compound]",> 100000,–
–,–,–,Cc1cn([C@H]2C=C[C@@H](COP(=O)(O)OP(=O)(O)OP(=O)(O)O)O2)c(=O)[nH]c1=O [d4TTP],–,accepted by HIV‐RT as a substrate (HIV‐RT): accepted
–,–,–,"CCCCCCCCCCCCCCCCCCP(=O)(OCc1ccc(OC(=O)CCCC)cc1)OP(=O)(O)OP(=O)(O)OC[C@H]1O[C@@H](n2cc(C)c(=O)[nH]c2=O)C[C@@H]1N=[N+]=[N-] (stereo partly drawn) [10bz, γ‐(AB‐C4)‐γ‐C‐(alkyl‐C18)‐AZTTP]",–,"half-life at 0.86 mM (in vitro [1]; Plasma (Citrate) t 1/2): 4.4 h; half-life at 0.86 mM (in vitro [1]; Plasma (Heparin) t 1/2): 7.6 h; half-life at 0.86 mM (in vitro [1]; t 1/2 in human plasma (over heparin and citrate plasma)): 4.4 to 7.6 h; EC50 (HIV‐1 [HE]; Human immunodeficiency virus 1, CCRF-CEM): 150 ± 150 nM; half-life at 1.9 mM [2]: 984 h; CC50 (in vitro [3]): 58900 nM; half-life at 0.86 mM (in vitro [4]): 8 h; EC50 (HIV‐2 [ROD]; Human immunodeficiency virus 2, CCRF-CEM): 7.5 ± 8.1 nM; EC50 (HIV‐2 [ROD)]; Human immunodeficiency virus 2, CEM-TK(-), thymidine kinase-deficient CEM/TK^− cells, mean ±SD n = 2–3; read-out: Antiviral activity CEM/TK^− HIV‐2 [ROD)] EC50): 310 ± 26 nM; half-life at 0.45 mM (pig liver esterase (PLE)): 0.25 h"
–,–,–,Cc1cn([C@H]2C=C[C@@H](COP(=O)(O)OP(=O)(O)O)O2)c(=O)[nH]c1=O [d4TDP],–,accepted by HIV‐RT as a substrate (HIV‐RT): accepted
